Seven compounds from ChEMBL document CHEMBL1201862, “PubChem BioAssay data set” (2004) can be followed below.

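Exposure lasted 48 hours, with cells grown in 96-well plates and compounds tested at five concentrations. Here, GI50 denotes the concentration required for 50% inhibition of growth.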 The source made the active and inactive calls. Cut-off read from the data, not from the text of the source: active = GI50 up to about 1.1 µM and inactive = higher.

Test systems include A498; ACHN; CCRF-CEM; COLO 205; EKVX; HL-60; HOP-62; HOP-92; K562; KM12; MCF7; MDA-MB-435; MDA-N; MOLT-4; NCI-H226; NCI-H460; OVCAR-5; SF-295; SF-539; SNB-19.
What all share (assay): NCI-60 cell line screen, 48 h

As for `COc1ccc2c(c1)OC(c1cccnc1)C(c1ccccc1)C2=O` (stereo not given), the GI50 with A498, with ACHN, with CCRF-CEM, with COLO 205, in the assay on EKVX and with HL-60 was > 100 µM (inactive) each time. Moreover, the GI50 in the assay with HOP-62 is 25.9 µM (inactive); with HOP-92, 49.5 µM (inactive); with K562, > 100 µM (inactive); in the assay on KM12, > 100 µM (inactive); with MCF7, > 100 µM (inactive); in the assay on MDA-MB-435, > 100 µM (inactive). The GI50 was > 100 µM (inactive) with MDA-N; > 100 µM (inactive) with MOLT-4; 98.9 µM (inactive) in the assay with NCI-H226; > 100 µM (inactive) in the assay with NCI-H460; > 100 µM (inactive) in the assay with OVCAR-5; 46.5 µM (inactive) with SF-295. The GI50 with SF-539 was > 100 µM (inactive); in the assay with SNB-19 it was 66.7 µM (inactive).
Consider `C/C(=N\N=C(/S)N(C)C)c1cccc[n+]1[O-]`, for which the GI50 in the assay on A498 is > 100 µM (inactive); with ACHN, 38.2 µM (inactive); with CCRF-CEM, 0.565 µM (active); in the assay with COLO 205 it was 0.82 µM (active); with EKVX it was 25.9 µM (inactive); in the assay with HL-60 it was 1.03 µM (active). Besides, the GI50 is 18 µM (inactive) in the assay on HOP-62; 22.3 µM (inactive) in the assay on HOP-92; 0.631 µM (active) in the assay on K562; 45.5 µM (inactive) in the assay with KM12; 8.05 µM (inactive) in the assay on MCF7; 65.8 µM (inactive) with MDA-MB-435. The GI50 in the assay on MDA-N is 95.1 µM (inactive); with MOLT-4, 0.914 µM (active); in the assay on NCI-H226, 54.6 µM (inactive); in the assay on NCI-H460 it was 33.6 µM (inactive); with OVCAR-5 it was 35.9 µM (inactive); in the assay with SF-295 it was 39.6 µM (inactive). For the same compound, the GI50 with SF-539 was 47.4 µM (inactive); in the assay with SNB-19, 91 µM (inactive).
Turning to `O=C(O)c1[nH]c2c([N+](=O)[O-])cc([N+](=O)[O-])cc2c1C(=O)O`, the GI50 with A498, in the assay on ACHN, in the assay on CCRF-CEM, in the assay on COLO 205, with EKVX and in the assay on HL-60 was > 100 µM (inactive) each time. Moreover, the GI50 with HOP-62 is > 100 µM (inactive); in the assay with HOP-92 it was > 100 µM (inactive); in the assay on K562 it was > 100 µM (inactive); with KM12, > 100 µM (inactive); in the assay with MCF7 it was > 100 µM (inactive); in the assay on MDA-MB-435 it was 52.1 µM (inactive). The GI50 in the assay on MDA-N is 29.9 µM (inactive); in the assay on MOLT-4, > 100 µM (inactive); in the assay with NCI-H226, > 100 µM (inactive); with NCI-H460, > 100 µM (inactive); in the assay on OVCAR-5, > 100 µM (inactive); in the assay with SF-295 it was > 100 µM (inactive). Also, the GI50 in the assay on SF-539 and in the assay with SNB-19 was > 100 µM (inactive) throughout.
As to `CCOC(=O)c1ccc(NC(=O)O/N=C(/Cl)C(C)C)cc1`, the GI50 is 14.7 µM (inactive) in the assay on A498; 14 µM (inactive) with ACHN; 0.953 µM (active) in the assay with CCRF-CEM; 2.42 µM (inactive) with COLO 205; 14.9 µM (inactive) in the assay with EKVX; 1.23 µM (inactive) in the assay on HL-60. Besides, the GI50 with HOP-62 is 17 µM (inactive); with HOP-92, 1.82 µM (inactive); in the assay on K562, 1.56 µM (inactive); in the assay on KM12, 18.3 µM (inactive); in the assay with MCF7, 1.98 µM (inactive); with MDA-MB-435 it was 16 µM (inactive). In addition, the GI50 is 15.8 µM (inactive) in the assay with MDA-N; 1.92 µM (inactive) with MOLT-4; 24.4 µM (inactive) in the assay on NCI-H226; 19.6 µM (inactive) in the assay on NCI-H460; 17.6 µM (inactive) in the assay on OVCAR-5; 19.1 µM (inactive) in the assay with SF-295. In addition, the GI50 in the assay on SF-539 is 18.6 µM (inactive); in the assay on SNB-19, 24 µM (inactive).
Turning to `Nc1ncnc2c1ncn2[C@@H]1O[C@H](C(=O)O)[C@@H](O)[C@H]1O` [5'-CARBOXY ADENOSINE], the GI50 in the assay with A498, in the assay on ACHN, in the assay on CCRF-CEM, with COLO 205, in the assay on EKVX and with HL-60 was > 100 µM (inactive) each time. In addition, the GI50 in the assay on HOP-62, in the assay on HOP-92, in the assay on K562, with KM12, in the assay with MCF7 and in the assay on MDA-MB-435 was > 100 µM (inactive) each time. The GI50 with MDA-N, in the assay with MOLT-4, in the assay with NCI-H226, in the assay on NCI-H460, with OVCAR-5 and in the assay on SF-295 was > 100 µM (inactive) throughout. The GI50 in the assay with SF-539 and with SNB-19 was > 100 µM (inactive) in each case.
As to `COc1cc(C2c3cc4c(cc3OC(N3CCCCC3)C2C)OCO4)cc(OC)c1O` (stereo not given), the GI50 in the assay with A498 was 10.9 µM (inactive); in the assay on ACHN, 8.57 µM (inactive); with CCRF-CEM, 3.4 µM (inactive); in the assay on COLO 205, 17.7 µM (inactive); in the assay on EKVX it was 26.1 µM (inactive); in the assay with HL-60 it was 4.15 µM (inactive). In addition, the GI50 in the assay with HOP-62 is 6.78 µM (inactive); with HOP-92 it was 15 µM (inactive); in the assay with K562, 4.06 µM (inactive); in the assay with KM12, 5.89 µM (inactive); in the assay on MCF7 it was 5.33 µM (inactive); with MDA-MB-435 it was 2.21 µM (inactive). Besides, the GI50 in the assay with MDA-N is 2.14 µM (inactive); with MOLT-4 it was 6.12 µM (inactive); with NCI-H226, 21.9 µM (inactive); in the assay on NCI-H460, 6.64 µM (inactive); in the assay on OVCAR-5, 20.1 µM (inactive); in the assay on SF-295, 3.7 µM (inactive). The GI50 in the assay on SF-539 is 9.64 µM (inactive); with SNB-19 it was 16.3 µM (inactive).
For the compound `O=C1C=C(Br)C(=O)C12CCc1ccccc12` (stereo not given), the GI50 is 4.61 µM (inactive) in the assay with A498; 11.5 µM (inactive) with ACHN; 2.66 µM (inactive) in the assay on CCRF-CEM; 4.05 µM (inactive) in the assay with COLO 205; 25.4 µM (inactive) in the assay with EKVX; 2.69 µM (inactive) in the assay with HL-60. The GI50 is 39 µM (inactive) in the assay with HOP-62; 13.5 µM (inactive) in the assay with HOP-92; 2.52 µM (inactive) in the assay with K562; 21.1 µM (inactive) with KM12; 16.5 µM (inactive) in the assay on MCF7; 14.7 µM (inactive) in the assay on MDA-MB-435. Also, the GI50 in the assay on MDA-N is 16.5 µM (inactive); in the assay with MOLT-4, 2.43 µM (inactive); with NCI-H226, 18.3 µM (inactive); in the assay with NCI-H460, 22.6 µM (inactive); in the assay on OVCAR-5, 18 µM (inactive); in the assay on SF-295 it was 18.6 µM (inactive). Moreover, the GI50 in the assay on SF-539 is 17.4 µM (inactive); in the assay on SNB-19, 32.9 µM (inactive).
